# Patent publication US6333422A, “Thermosensitive cyclotriphosphazene-platinum complex conjugate, its preparation method and anticancer agent containing the same” (Korea Institute of Science and Technology, priority 2000, dated 2001)
# Experiments:
# [1] = system: mouse leukemia L1210 cell line; experiment: In vitro cell growth inhibition of mouse leukemia L1210 cells (trypan blue dye exclusion); format: cell-based; conditions: viable cell number after 24, 48 and 72 hours, read-out: ED50 (concentration exhibiting 50% of cell growth inhibition)
# Protocol: 1. Determination of in vitro activity
# (§1) (2) Cancer cell line: mouse leukemia L1210 cell line
# After adding the samples each serially diluted by logarithmic dose to the cells, cells were cultured in an incubator at 37° C. and under 5% CO2 atmosphere.
# The viable cell number was determined after 24, 48 and 72 hours by using trypan blue dye exclusion test.
# [2] = system: mouse leukemia L1210 cell line; experiment: In vivo (i.p.) activity: survival of BDF1 mice implanted i.p. with leukemia L1210 cells
# Protocol: 2. Determination of in vivo (i.p.) activity
# (1) Samples: Example 2, Example 6, Example 7 and Example 11
# as §1
# (3) Experimental method: The leukemia L1210 cells(1×10^5 cells/0.1 ml) obtained from DBA/2 donor mice were injected intraperitoneally to the BDF1 mice (6-8 weeks old, 8 mice per group). The samples were either dissolved in PBS solution or suspended in 0.5% Tween 80 depending on their solubility. These sample solutions were administered via intraperitoneal injection once a day for 5 consecutive days or at day 1, 5, and 9 after the cancer cell implantation at variable dosages. The survival rate was determined by observing the mice each day. By comparing with the average survival time of the control group (where no chemical treatment was performed), the percent average increase in the survival time(T/C, %) was calculated to determine the anticancer activity.
# [3] = M. J. Cleare, Biochimie 60, 835 (1978); cited from earlier work
# [4] = Lower critical solution temperature (LCST, cloud point) by UV/VIS spectrophotometer; format: physicochemical
# From the text: Thermosensitive polymers in the present invention refer to the polymers that can be solubilized in water at low temperatures but precipitates above a certain critical temperature due to the rapid decrease of their water-solubility. When such a phase transition is reversible, the phase transition temperature is called a lower critical solution temperature(LCST) or a cloud point. Below LCST, the hydrogen bonding between the polymer-water molecules is stronger than the hydrophobic interaction between the polymer-polymer molecules. As the temperature increases, however, the hydrogen bonding between the polymer-water molecules weakens whereas the hydrophobic interaction between the polymer-polymer molecules increases resulting in the precipitation of polymers in aqueous solution.
# Elemental analysis of carbon, hydrogen, nitrogen in the compounds of the present invention was performed in the Special Analysis Center at KIST by using carbon, hydrogen and nitrogen analyzer (Perkin Elmer), and phosphorous and platinum analysis was performed using Polyscan 61E ICP. Hydrogen and phosphorous nuclear magnetic resonance spectra were obtained using Varian to Gemini-300, and LCST was measured by using Perkin-Elmer Lamda 18 UV/VIS spectrophotometer.
molecule,measurement,setting,value
"N.N.O=C([O-])C1(C(=O)[O-])CCC1.[Pt+2] [Carboplatin, reference compound]",IC50,[1],5900 nM
same,T/C (survival time vs control),[2]; dose 40 mgkg^-1,168.0%
same,LD50,[3],180 mg/kg
"N.N.[Cl][Pt][Cl] [Cisplatin, reference compound]",IC50,[1],700 nM
same,T/C (survival time vs control),[2]; dose 4 mgkg^-1,163.0%
{NP[(OCH2 CH2)2 OC2 H5 ][L-Asp.Pt(dach)]}3 [Example 7],Lower critical solution temperatures,[4],42.0 °C
same,IC50,[1],400 nM
same,T/C (survival time vs control),[2]; dose 40 mgkg^-1,200.8%
same,T/C (survival time vs control),[2]; dose 60 mgkg^-1,226.7%
same,T/C (survival time vs control),[2]; dose 80 mgkg^-1,> 271.7%
{NP[(OCH2 CH2)2 OC2 H5 ][L-Asp.Pt(dmach)]}3 [Example 8],Lower critical solution temperatures,[4],35.0 °C
{NP[(OCH2 CH2)2 OC2 H5 ][L-Asp.Pt(dmpda)]}3 [Example 6],Lower critical solution temperatures,[4],46.5 °C
same,T/C (survival time vs control),[2]; dose 30 mgkg^-1,146.1%
same,T/C (survival time vs control),[2]; dose 60 mgkg^-1,162.0%
{NP[(OCH2 CH2)2 OC2 H5 ][L-Mal.Pt(dach)]}3 [Example 5],Lower critical solution temperatures,[4],39.0 °C
{NP[(OCH2 CH2)2 OC3 H7 ][L-Asp.Pt(dach)]}3 [Example 9],Lower critical solution temperatures,[4],22.0 °C
{NP[(OCH2 CH2)2 OC4 H9 ][L-Asp.Pt(dach)]}3 [Example 10],Lower critical solution temperatures,[4],12.0 °C
{NP[(OCH2 CH2)2 OCH3 ][L-Asp.Pt(dach)]}3 [Example 2],Lower critical solution temperatures,[4],92.0 °C
same,IC50,[1],400 nM
same,T/C (survival time vs control),[2]; dose 30 mgkg^-1,217.3%
same,T/C (survival time vs control),[2]; dose 60 mgkg^-1,> 293.8%
same,T/C (survival time vs control),[2]; dose 90 mgkg^-1,> 511.0%
{NP[(OCH2 CH2)2 OCH3 ][L-Asp.Pt(dmach)]}3 [Example 3],Lower critical solution temperatures,[4],74.5 °C
{NP[(OCH2 CH2)2 OCH3 ][L-Asp.Pt(dmpda]}3 [Example 1],Lower critical solution temperatures,[4],98.0 °C
{NP[(OCH2 CH2)2 OCH3 ][L-Glu.Pt(dach)]}3 [Example 4],Lower critical solution temperatures,[4],82.0 °C
{NP[(OCH2 CH2)7 OCH3 ][L-Asp.Pt(dach)]}3 [Example 11],Lower critical solution temperatures,[4],84.0 °C
same,IC50,[1],200 nM
same,T/C (survival time vs control),[2]; dose 30 mgkg^-1,197.0%
same,T/C (survival time vs control),[2]; dose 60 mgkg^-1,229.2%
same,T/C (survival time vs control),[2]; dose 90 mgkg^-1,204.2%
{NP[(OCH2 CH2)12 OCH3 ][L-Asp.Pt(dach)]}3 [Example 12],Lower critical solution temperatures,[4],above 100 °C
